Where no end group is shown, it is not given here.
Test system: neuromuscular transmission
Experiment: Neuromuscular assay (electromyography after topical application)
Assay type: in vivo, guinea pigs
Details: 18 hours later
Procedure: To determine the effect of different formulations and dosages of compositions according to the invention, varying amounts of topical TP5 compositions prepared as described in Example 1B, were applied to the skin of guinea pigs.
A 11/2"×11/2" square section was shaved on each animal's back 24 hours before the application of the thymopentin composition. Four concentrations of thymopentin cream were used (10%, 5%, 2.5% and 1.25%) using Unibase® as a diluent. A total of 100 mg of cream containing either 10 mg, 5 mg, 2.5 mg or 1.25 mg thymopentin was rubbed with a spatula on the shaved skin of each animal. Control animals were treated similarly with the Unibase® carrier only.
Eighteen hours later the neuromuscular transmission of each group of five animals for each concentration was assessed by electromyography as described in Lancet, 12:256-259 (1975).

RKDVY [thymopentin]
neuromuscular change compared to control animals (5% thymopentin cream in Unibase, 100 mg cream (5 mg thymopentin) on shaved skin): Significant neuromuscular change | neuromuscular change compared to control animals (10% thymopentin cream in Unibase, 100 mg cream (10 mg thymopentin) on shaved skin): Significant neuromuscular change

Reference: patent US5036050A, “Compositions containing thymopentin for topical treatment of skin disorders” (Immunobiology Research Institute, Inc., priority 1989, dated 1991)
